Data on 32 molecules can be found in article PMC8286840, “Identifying SARS-CoV-2 antiviral compounds by screening for small molecule inhibitors of Nsp3 papain-like protease” (Biochemical Journal, 2021).

The target in experiment [1] is T1, SARS-CoV-2 PLpro (nsp3 1564–1878) (Severe acute respiratory syndrome coronavirus 2, UniProt P0DTD1). The experiment can be described thus: biochemical. Also on record: FRET-quenched peptide (Pro3) cleavage by PLpro, 10 min pre-incubation, slope over 20 min, normalised to no-compound control. As to conditions: read-out: % of control remaining.
Experiment [2] addresses T1, SARS-CoV-2 PLpro (nsp3 1564–1878). The experiment can be described thus: biochemical. Set-up: FRET-quenched peptide (Pro3) cleavage by PLpro, 10 min pre-incubation, slope over 20 min, normalised to no-compound control. To be noted: read-out: % of control remaining. This is another data set of the same source.

Structures can show the parent of a compound that is named as a salt. Where two headings read alike, the source gives them in different places.

For the molecule `CCOP(=O)(OCC)C(=Cc1cc(C(C)(C)C)c(O)c(C(C)(C)C)c1)P(=O)(OCC)OCC` [SR 12813], the remaining activity at 1.25 µM in experiment [1] came out at 96.5%. Moreover, in experiment [2], the remaining activity at 3.75 µM is 103%.
Take `CC(C)c1cc(C(C)C)c(-c2csc(N(CCN(C)C)Cc3cccnc3)n2)c(C(C)C)c1` [SR 27417]: in experiment [1] (Well no.=5599, low concentration screen), the remaining activity at 1.25 µM was 100%. The remaining activity at 3.75 µM in experiment [2] (Well no.=5599, high concentration screen) is 100%.
In the case of `NC1CCN(c2cccc(Cl)n2)CC1` [SR 57227A], in experiment [1] (Well no.=1262, low concentration screen), the remaining activity at 1.25 µM amounted to 103%. Moreover, in experiment [2] (Well no.=1262, high concentration screen), the remaining activity at 3.75 µM was found to be 102%.
With `COc1ccc(-c2ccc(=N)n(CCCC(=O)O)n2)cc1` [SR-95531], in experiment [1] (Well no.=1325, low concentration screen), the remaining activity at 1.25 µM amounted to 103%. The remaining activity at 3.75 µM in experiment [2] (Well no.=1325, high concentration screen) came out at 98.9%.
For the molecule `O=C(Nc1ccccc1-c1cn2c(CN3CCNCC3)csc2n1)c1cnc2ccccc2n1` [SRT1720], the remaining activity at 1.25 µM in experiment [1] (Well no.=4673, low concentration screen) is 100%. Also, the remaining activity at 3.75 µM in experiment [2] (Well no.=4673, high concentration screen) was found to be 98.8%.
As to `C[C@@H](Nc1cc(NS(=O)(=O)N2CCC2)nc(SCc2cccc(F)c2F)n1)[C@@H](O)CO` [SRT3109], the remaining activity at 1.25 µM in experiment [1] (Well no.=8607, low concentration screen) stood at 108%. Further, in experiment [2] (Well no.=8607, high concentration screen), the remaining activity at 3.75 µM turned out to be 104%.
As for `C[C@H](Nc1cc(NS(=O)(=O)N2CCC2)nc(SCc2cccc(F)c2F)n1)[C@@H](O)CO` [SRT3190], the remaining activity at 1.25 µM was found to be 104% in experiment [1] (Well no.=7438, low concentration screen) and 98.1% in experiment [1] (Well no.=8507, low concentration screen). Further, the remaining activity at 3.75 µM in experiment [2] (Well no.=7438, high concentration screen) was determined as 104%; in experiment [2] (Well no.=8507, high concentration screen) it was 97.8%.
Turning to `O=c1cc(C(Cl)(Cl)Cl)oc2ccc(Cl)cc12` [ST034307], in experiment [1] (Well no.=7185, low concentration screen), the remaining activity at 1.25 µM was 103%. For the same molecule, the remaining activity at 3.75 µM in experiment [2] (Well no.=7185, high concentration screen) worked out at 95.4%.
As for `CCCN(CCN1CCN(c2ccccc2OC)CC1)C1CCc2ncsc2C1` (centres unmarked) [ST-836 (hydrochloride)], the remaining activity at 1.25 µM in experiment [1] (Well no.=8445, low concentration screen) worked out at 89.3%. For the same molecule, in experiment [2] (Well no.=8445, high concentration screen), the remaining activity at 3.75 µM was 92.2%.
Take `CC(C)(C)c1ccc(S(=O)(=O)NCc2ccc(C(=O)Nc3cccnc3)cc2)cc1` [STF-31]: in experiment [1] (Well no.=6059, low concentration screen), the remaining activity at 1.25 µM was determined as 94.9%. Further, the remaining activity at 3.75 µM in experiment [2] (Well no.=6059, high concentration screen) is 94.5%.
`Cc1cccc(Nc2nc(-c3ccncc3)cs2)c1` [STF-62247]: in experiment [1] (Well no.=4615, low concentration screen), the remaining activity at 1.25 µM is 102%. In addition, the remaining activity at 3.75 µM in experiment [2] (Well no.=4615, high concentration screen) worked out at 106%.
In the case of `Cc1ccc(S(=O)(=O)Cc2nc(-c3ccc(C(=O)NCc4cccnc4)cc3)oc2C)cc1` [STF-118804], the remaining activity at 1.25 µM in experiment [1] (Well no.=5552, low concentration screen) was 90.7%. For the same molecule, in experiment [2] (Well no.=5552, high concentration screen), the remaining activity at 3.75 µM is 91.7%.
With `O=C(NCc1ccco1)c1ccc2c(c1)N(Cc1c(F)cccc1Cl)C(=O)CS2` [STING agonist-1], the remaining activity at 1.25 µM in experiment [1] (Well no.=8643, low concentration screen) was found to be 102%. In addition, the remaining activity at 3.75 µM in experiment [2] (Well no.=8643, high concentration screen) came to 103%.
For the molecule `O=C(O)c1ccc2c3c1cccc3c(=O)n1c3ccccc3nc21` [STO-609], the remaining activity at 1.25 µM in experiment [1] (Well no.=2658, low concentration screen) was 90%. Besides, in experiment [2] (Well no.=2658, high concentration screen), the remaining activity at 3.75 µM turned out to be 89.5%.
As to `CN(C)S(=O)(=O)c1ccc2c(c1)/C(=C/c1cc3c([nH]1)CCCC3)C(=O)N2` [SU6656], the remaining activity at 1.25 µM in experiment [1] (Well no.=2500, low concentration screen) turned out to be 94.8%; in experiment [1] (Well no.=8074, low concentration screen) it was 101%. Besides, the remaining activity at 3.75 µM is 99.1% in experiment [2] (Well no.=2500, high concentration screen) and 98.5% in experiment [2] (Well no.=8074, high concentration screen).
Turning to `COc1ccc2c(c1)/C(=C/c1cnc[nH]1)C(=O)N2` [SU9516], the remaining activity at 1.25 µM in experiment [1] (Well no.=2660, low concentration screen) turned out to be 96.5%. In experiment [2] (Well no.=2660, high concentration screen), the remaining activity at 3.75 µM is 94.4%.
As for `Cc1[nH]c(/C=C2\C(=O)Nc3ccc(S(=O)(=O)N(C)c4cccc(Cl)c4)cc32)c(C)c1C(=O)N1CCN(C)CC1` [SU11274], the remaining activity at 1.25 µM in experiment [1] (Well no.=8164, low concentration screen) amounted to 95.8%. The remaining activity at 3.75 µM in experiment [2] (Well no.=8164, high concentration screen) is 94.4%.
For the molecule `CCN(CC)CCNC(=O)c1c(C)[nH]c(/C=C2\C(=O)Nc3ccc(Cl)cc32)c1C` [SU11652], in experiment [1] (Well no.=2565, low concentration screen), the remaining activity at 1.25 µM turned out to be 93.6%. The remaining activity at 3.75 µM in experiment [2] (Well no.=2565, high concentration screen) is 93.7%.
Turning to `CN(C)c1ccc(/C=C2\C(=O)Nc3ccccc32)cc1` [SU 4312 - 3-[[4-(dimethylamino)phenyl]methylene]-1,3-dihydro-2H-indol-2-one], the remaining activity at 1.25 µM in experiment [1] (Well no.=2430, low concentration screen) came out at 106%. In experiment [2] (Well no.=2430, high concentration screen), the remaining activity at 3.75 µM was determined as 109%.
As for `CN(C)c1ccc(/C=C2\C(=O)Nc3ccccc32)cc1` [SU 4312], the remaining activity at 1.25 µM in experiment [1] (Well no.=1179, low concentration screen) worked out at 97.9%. Further, in experiment [2] (Well no.=1179, high concentration screen), the remaining activity at 3.75 µM is 101%.
`Cc1c[nH]c(/C=C2\C(=O)Nc3ccccc32)c1CCC(=O)O` [SU-5402]: the remaining activity at 1.25 µM in experiment [1] (Well no.=3037, low concentration screen) came out at 96.3%. Further, the remaining activity at 3.75 µM in experiment [2] (Well no.=3037, high concentration screen) came out at 95.9%.
With `CCCC[S+]([O-])c1sc2nc(-c3cccs3)cc(-c3ccccc3)c2c1N` (centres unmarked) [SW033291], in experiment [1] (Well no.=8674, low concentration screen), the remaining activity at 1.25 µM stood at 101%. In experiment [2] (Well no.=8674, high concentration screen), the remaining activity at 3.75 µM came to 97.5%.
As for `CCc1cc2c(=O)c(-c3nc4ccccc4s3)coc2c(CN2CCCCC2)c1O` [SZL P1-41], the remaining activity at 1.25 µM in experiment [1] (Well no.=6694, low concentration screen) is 103%. Moreover, the remaining activity at 3.75 µM in experiment [2] (Well no.=6694, high concentration screen) came to 102%.
For `C[C@H](NCc1ccc(OCc2cccc(F)c2)cc1)C(N)=O` [Safinamide mesylate salt], in experiment [1] (Well no.=5442, low concentration screen), the remaining activity at 1.25 µM is 89.5%. Further, the remaining activity at 3.75 µM in experiment [2] (Well no.=5442, high concentration screen) was 94.5%.
Regarding `CC(C)(C)NCC(O)c1ccc(O)c(CO)c1` (centres unmarked) [Salbutamol (hemisulfate)], the remaining activity at 1.25 µM in experiment [1] (Well no.=7577, low concentration screen) turned out to be 95.6%. The remaining activity at 3.75 µM in experiment [2] (Well no.=7577, high concentration screen) was determined as 96.7%.
Turning to `CC(C)(C)NCC(O)c1ccc(O)c(CO)c1` (centres unmarked) [Salbutamol], the remaining activity at 1.25 µM in experiment [1] (Well no.=1366, low concentration screen) was 101%. For the same molecule, in experiment [2] (Well no.=1366, high concentration screen), the remaining activity at 3.75 µM amounted to 101%.
Consider `CC[C@@H](C(=O)[C@@H](C)[C@@H](O)[C@H](C)[C@@H]1O[C@@H]([C@@H](CC)C(=O)O)CC[C@@H]1C)[C@H]1O[C@]2(C=C[C@@H](O)[C@]3(CC[C@@](C)([C@H]4CC[C@](O)(CC)[C@H](C)O4)O3)O2)[C@H](C)C[C@@H]1C` [Salinomycin], for which, in experiment [1] (Well no.=3499, low concentration screen), the remaining activity at 1.25 µM stood at 104%. In addition, the remaining activity at 3.75 µM in experiment [2] (Well no.=3499, high concentration screen) was 102%.
For `CC(C)=CCC/C(C)=C/CC/C(C)=C/CSc1ccccc1C(=O)O` [Salirasib], the remaining activity at 1.25 µM in experiment [1] (Well no.=6668, low concentration screen) was 104%. Further, the remaining activity at 3.75 µM in experiment [2] (Well no.=6668, high concentration screen) amounted to 105%.
As for `OCc1cc(C(O)CNCCCCCCOCCCCc2ccccc2)ccc1O` (centres unmarked) [Salmeterol], the remaining activity at 1.25 µM in experiment [1] (Well no.=1414, low concentration screen) is 98.7%. Besides, the remaining activity at 3.75 µM in experiment [2] (Well no.=1414, high concentration screen) is 99.5%.
Consider `COc1cc2c(cc1O)CCN[C@@H]2C` [Salsoline], for which, in experiment [1] (Well no.=3715, low concentration screen), the remaining activity at 1.25 µM amounted to 100%. Besides, the remaining activity at 3.75 µM in experiment [2] (Well no.=3715, high concentration screen) amounted to 102%.
As for `O=C(/C=C/c1ccccc1)NC(NC(=S)Nc1cccc2cccnc12)C(Cl)(Cl)Cl` (centres unmarked) [Salubrinal], the remaining activity at 1.25 µM in experiment [1] (Well no.=4877, low concentration screen) amounted to 98.9%. In experiment [2] (Well no.=4877, high concentration screen), the remaining activity at 3.75 µM came out at 99.5%.
`C[n+]1cc2c3c(ccc2c2ccc4cc5c(cc4c21)OCO5)OCO3` [Sanguinarine (chloride)]: the remaining activity at 1.25 µM in experiment [1] (Well no.=6636, low concentration screen) stood at 99.4%. The remaining activity at 3.75 µM in experiment [2] (Well no.=6636, high concentration screen) was 98.9%.
